Source: US20020006906A1, “Novel active agent, composition containing it and use in the cosmetic, dermocosmetic, dermopharmaceutical or pharmaceutical field or on woven or nonwoven supports” (SOCIETE D'EXPLOITATION DE PRODUITS POUR LES, priority 2000, published 2002)

How the values were obtained:
[1] = system: normal human keratinocytes; experiment: Cell division: fluorimetric DNA assay in keratinocytes under thermal stress; assay type: cell-based
Description: The effect of the active agents on cell division is measured by a fluorimetric assay of the content of DNA in normal human keratinocytes subjected to a high thermal stress (20 minutes at 50° C.). The quantity of DNA present in the cells determines their capacity to divide. The cells are used at 60% confluence. They are incubated for 24 hours in the presence of the active agents. Cell division is determined by assaying the quantity of DNA present per well.
Four samples A, B, C and D, of a culture normal human keratinocytes, are subjected to the following respective treatments:
Sample A: cells not treated and left at room temperature.
Sample B: cells not treated and heated at 50° C. for 20 minutes.
Sample D: cells left incubated for 24 hours with panthenol (concentration: 12.5×10^−6% by weight of active substance) and heated at 50° C. for 20 minutes.
The DNA in each of the samples is then assayed.

[2] = system: superoxide anion; experiment: Anti-free-radical test: xanthine/xanthine oxidase, reduction of cytochrome C (550 nm); assay type: biochemical; conditions: 0.46% (as active substance); for % anti-free radical inhibition: 25° C.
Description: The determination of the anti-free-radical effect is based on the capacity which the molecule to be studied has to inhibit or reduce the rate of reduction of cytochrome C, when it is added to the reaction medium. The superoxide anion is formed by the action of xanthine oxidase on xanthine. It induces, in the absence of a molecule capable of capturing it, the reduction of cytochrome C. The appearance of reduced cytochrome C is monitored in a spectrophotometer at 550 nm, in the presence (Trial) and in the absence (Control) of anti-free-radical molecules.
The reaction is carried out in a spectrophotometer thermostated at 25° C. and provided with a sample changer. All the kinetics are determined at least three times; the mean and the standard deviation are calculated for the three values obtained. A percentage inhibition of the rate of appearance of the coloured product (corresponding to the quantity of free superoxide anion) is therefore calculated for each active agent tested. The calculation is performed relative to the rate of appearance of the coloured product in the control (without active agent). The percentage inhibition of the appearance of the coloured product by the active agent therefore corresponds to the percentage inhibition of the superoxide anion.

Anti-free radical activity (in words) [2] | % anti-free radical inhibition [2] [%] | SMILES | Relative level of cell division (base 100: batch B) ([1]; Sample D: 12.5×10^−6% active substance, 24 hours, 50° C. for 20 minutes) | Cell division (in μg/well), DNA per well ([1]; Sample D: 24 hours with 12.5×10^−6% by weight of active substance, then 50° C. for 20 minutes (heated untreated sample B 3.7)) [μg/well] | Effect on cell division under heat (in words) ([1]; keratinocytes heated at 50° C. for 20 minutes)
nonexistent | 0 | CC(C)(CO)C(O)C(=O)NCCCO (stereo not drawn) [Panthenol, 2,4-dihydroxy-N-(3-hydroxypropyl)-3,3-dimethylbutanamide] | 116.2 | 4.3 | only compensates for these effects
 | 94 | O=C1O[C@H]([C@@H](O)CO)C(O)=C1O [Vitamin C, ascorbic acid] |  |  | 
